Data reported in patent publication US20060069123A1, “Substituted dipiperidine CCR2 antagonists” (priority 2004, published 2006).

tested on: THP-1 cells; test: MCP-1 Induced Chemotaxis in THP-1 Cells; type: cell-based; details: Homo sapiens; THP-1 cells, MCP-1 0.01 μg/mL, 3 hours; read-out: Inhibition of MCP-1 Induced Chemotaxis IC50
Experimental: MCP-1 Induced Chemotaxis in THP-1 Cells
MCP-1 induced chemotaxis was run in a 24-well chemotaxis chamber. MCP-1 (0.01 μg/mL) was added to the lower chamber and 100 μL of THP-1 cells (1×10^7 cell/mL) was added to the top chamber. Varying concentrations of test compound were added to the top and bottom chambers. Cells were allowed to chemotax for 3 hours at 37° C. and 5% CO2. An aliquot of the cells that had migrated to the bottom chamber was taken and counted then compared to vehicle.

For `O=C(O)C(C1CCN(C(=O)/C=C/c2cc(F)cc(F)c2)CC1)N1CCC(c2c[nH]c3ccc(F)cc23)CC1` (stereo not drawn) [Cpd 8, {1-[(2E)-3-(3,5-difluoro-phenyl)-acryloyl]-piperidin-4-yl}-[4-(5-fluoro-1H-indol-3-yl)-piperidin-1-yl]-acetic acid], the IC50 was 10 nM.

molecular target: T1, CCR2 (Homo sapiens, UniProt P41597); test: not given; details: not given
T1 sequence (P41597 1-360 isoform P41597-2): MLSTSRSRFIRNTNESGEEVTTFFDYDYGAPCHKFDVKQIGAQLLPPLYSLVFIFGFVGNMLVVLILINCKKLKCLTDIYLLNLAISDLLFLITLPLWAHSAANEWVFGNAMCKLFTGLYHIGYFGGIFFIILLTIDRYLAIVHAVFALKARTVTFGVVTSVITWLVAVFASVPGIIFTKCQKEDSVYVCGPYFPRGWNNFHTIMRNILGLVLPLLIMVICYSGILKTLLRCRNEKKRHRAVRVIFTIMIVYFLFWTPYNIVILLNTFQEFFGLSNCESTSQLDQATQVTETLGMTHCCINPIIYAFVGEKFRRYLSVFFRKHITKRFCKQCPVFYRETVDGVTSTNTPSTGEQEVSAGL

Going from `COC(=O)c1ccc(C2CCN(C(C(=O)O)C3CCN(C(=O)/C=C/c4cc(F)cc(F)c4)CC3)CC2)cc1` (stereo not drawn) [Cpd 145, 4-[1-(carboxy-{1-[(2E)-3-(3,5-difluoro-phenyl)-acryloyl]-piperidin-4-yl}-methyl)-piperidin-4-yl]-benzoic acid methyl ester] to `COC(=O)OCC(C1CCN(C(=O)/C=C/c2cc(F)cc(F)c2)CC1)N1CCC(c2ccc(Cl)cc2)CC1` (stereo not drawn) [Cpd 250, carbonic acid 2-[4-(4-chloro-phenyl)-piperidin-1-yl]-2-{1-[(2E)-3-(3,5-difluoro-phenyl)-acryloyl]-piperidin-4-yl}-ethyl ester methyl ester], the IC50 falls from 5850 nM to 2900 nM (2-fold). The second is the more potent here.

First: O=C(CC1CCN(C(C(=O)O)C2CCN(C(=O)/C=C/c3cc(F)cc(F)c3)CC2)CC1)NCc1ccccc1 (stereo not drawn) [Cpd 148, [4-(benzylcarbamoyl-methyl)-piperidin-1-yl]-{1-[(2E)-3-(3,5-difluoro-phenyl)-acryloyl]-piperidin-4-yl}-acetic acid]
Second: O=C(CC1CCN(C(C(=O)O)C2CCN(C(=O)/C=C/c3cc(F)c(F)c(F)c3)CC2)CC1)NCc1ccccc1 (stereo not drawn) [Cpd 149]
The IC50 of the first is 1.9-fold lower: 8800 nM for the first, 16600 nM for the second. The first is the more potent here.

`O=C(O)C(C1CCN(C(=O)/C=C/c2cc(F)c(F)c(F)c2)CC1)N1CCC(c2cc[nH]c2)CC1` (stereo not drawn) [Cpd 150, [4-(1H-pyrrol-3-yl)-piperidin-1-yl]-{1-[(2E)-3-(3,4,5-trifluoro-phenyl)-acryloyl]-piperidin-4-yl}-acetic acid] and `CS(=O)(=O)Nc1ccc(C2CCN(C(C(=O)O)C3CCN(C(=O)/C=C/c4cc(F)c(F)c(F)c4)CC3)CC2)cc1` (stereo not drawn) [Cpd 206, [4-(4-methanesulfonylamino-phenyl)-piperidin-1-yl]-{1-[(2E)-3-(3,4,5-trifluoro-phenyl)-acryloyl]-piperidin-4-yl}-acetic acid] are within 1.5-fold of each other in IC50: 1600 nM for the first, 2000 nM for the second.

`CCOC(=O)C(C1CCN(C(=O)/C=C/c2cc(F)c(F)c(F)c2)CC1)N1CCC(c2c[nH]c3ncccc23)CC1` (stereo not drawn) [Cpd 152, [4-(1H-pyrrolo[2,3-b]pyridin-3-yl)-piperidin-1-yl]-{1-[(2E)-3-(3,4,5-trifluoro-phenyl)-acryloyl]-piperidin-4-yl}-acetic acid ethyl ester] and `COC(=O)NCC(C1CCN(C(=O)/C=C/c2cc(F)c(F)c(F)c2)CC1)N1CCC(c2c[nH]c3ccccc23)CC1` (stereo not drawn) [Cpd 238, (2-[4-(1H-indol-3-yl)-piperidin-1-yl]-2-{1-[(2E)-3-(3,4,5-trifluoro-phenyl)-acryloyl]-piperidin-4-yl}-ethyl)-carbamic acid methyl ester] are within 1.5-fold of each other in IC50: 1900 nM for the first, 2400 nM for the second.

First: O=C(O)C(C1CCN(C(=O)/C=C/c2cc(F)cc(F)c2)CC1)N1CCC(c2n[nH]c3ccccc23)CC1 (stereo not drawn) [Cpd 177, {1-[(2E)-3-(3,5-difluoro-phenyl)-acryloyl]-piperidin-4-yl}-[4-(1H-indazol-3-yl)-piperidin-1-yl]-acetic acid]
Second: O=CNCC(C1CCN(C(=O)/C=C/c2cc(F)cc(F)c2)CC1)N1CCC(c2c[nH]c3ccccc23)CC1 (stereo not drawn) [Cpd 221]
The IC50 of the first is 7.3-fold higher: 3000 nM for the first, 410 nM for the second.

`O=C(/C=C/c1cc(F)cc(F)c1)N1CCC(C(CO)N2CCC(c3nccs3)CC2)CC1` (stereo not drawn) [Cpd 194, (2E)-3-(3,5-difluoro-phenyl)-1-{4-[2-hydroxy-1-(4-thiazol-2-yl-piperidin-1-yl)-ethyl]-piperidin-1-yl}-propenone] and `O=C(/C=C/c1cc(F)c(F)c(F)c1)N1CCC(C(CO)N2CCC(c3nccs3)CC2)CC1` (stereo not drawn) [Cpd 195] are within 1.5-fold of each other in IC50: 2300 nM for the first, 3300 nM for the second.

`O=C(/C=C/c1ccc(Cl)c(Cl)c1)N1CCC(C(CO)N2CCC(c3nccs3)CC2)CC1` (stereo not drawn) [Cpd 196] and `CS(=O)(=O)Nc1ccc(C2CCN(C(CO)C3CCN(C(=O)/C=C/c4ccc(Cl)c(Cl)c4)CC3)CC2)cc1` (stereo not drawn) [Cpd 210, N-{4-[1-(1-{1-[(2E)-3-(3,4-dichloro-phenyl)-acryloyl]-piperidin-4-yl}-2-hydroxy-ethyl)-piperidin-4-yl]-phenyl}-methanesulfonamide] are within 1.5-fold of each other in IC50: 5700 nM for the first, 5000 nM for the second.

First: COc1cccc(C2CCN(C(CO)C3CCN(C(=O)/C=C/c4cc(F)cc(F)c4)CC3)CC2)c1 (stereo not drawn) [Cpd 197]
Second: O=C(/C=C/c1cc(F)cc(F)c1)N1CCC(C(CO)N2CCC(c3ccc(Cl)cc3)CC2)CC1 (stereo not drawn) [Cpd 249, (2E)-1-(4-{1-[4-(4-chloro-phenyl)-piperidin-1-yl]-2-hydroxy-ethyl}-piperidin-1-yl)-3-(3,5-difluoro-phenyl)-propenone]
The IC50 of the first is 60-fold higher: 1200 nM for the first, 20 nM for the second.

`O=C(/C=C/c1cc(F)cc(F)c1)N1CCC(C(CO)N2CCC(c3ccccn3)CC2)CC1` (stereo not drawn) [Cpd 200] and `COCC(C1CCN(C(=O)/C=C/c2cc(F)cc(F)c2)CC1)N1CCC(c2ccc(OC)cc2)CC1` (stereo not drawn) [Cpd 255, (2E)-3-(3,5-difluoro-phenyl)-1-(4-{2-methoxy-1-[4-(4-methoxy-phenyl)-piperidin-1-yl]-ethyl}-piperidin-1-yl)-propenone] are within 1.5-fold of each other in IC50: 2000 nM for the first, 2400 nM for the second.

Going from `O=CNCC(C1CCN(C(=O)/C=C/c2ccc(Cl)c(Cl)c2)CC1)N1CCC(c2c[nH]c3ccccc23)CC1` (stereo not drawn) [Cpd 222] to `COC(=O)NCC(C1CCN(C(=O)/C=C/c2ccc(Cl)c(Cl)c2)CC1)N1CCC(c2c[nH]c3ccccc23)CC1` (stereo not drawn) [Cpd 240], the IC50 rises from 680 nM to 4600 nM (6.8-fold). The first is the more potent here.

`Cc1cccc(/C=C/C(=O)N2CCC(C(CNC=O)N3CCC(c4c[nH]c5ccccc45)CC3)CC2)c1` (stereo not drawn) [Cpd 223] and `CCNC(=O)NCC(C1CCN(C(=O)/C=C/c2cccc(C)c2)CC1)N1CCC(c2c[nH]c3ccccc23)CC1` (stereo not drawn) [Cpd 231] are within 1.5-fold of each other in IC50: 4100 nM for the first, 4600 nM for the second.

First: O=CNCC(C1CCN(C(=O)/C=C/c2ccsc2)CC1)N1CCC(c2c[nH]c3ccccc23)CC1 (stereo not drawn) [Cpd 225]
Second: O=CNCC(C1CCN(C(=O)Nc2ccc(Cl)c(Cl)c2)CC1)N1CCC(c2c[nH]c3ccccc23)CC1 (stereo not drawn) [Cpd 226]
The IC50 of the first is 1.6-fold lower: 1300 nM for the first, 2100 nM for the second.

`CCNC(=O)NCC(C1CCN(C(=O)/C=C/c2cc(F)c(F)c(F)c2)CC1)N1CCC(c2c[nH]c3ccccc23)CC1` (stereo not drawn) [Cpd 228] and `CCNC(=O)NCC(C1CCN(C(=O)/C=C/c2cc(F)cc(F)c2)CC1)N1CCC(c2c[nH]c3ccccc23)CC1` (stereo not drawn) [Cpd 229] are within 1.5-fold of each other in IC50: 2400 nM for the first, 1700 nM for the second.

Compared with `CCNC(=O)NCC(C1CCN(C(=O)/C=C/c2ccc(Cl)c(Cl)c2)CC1)N1CCC(c2c[nH]c3ccccc23)CC1` (stereo not drawn) [Cpd 230], `CCNC(=O)NCC(C1CCN(C(=O)/C=C/c2cccc(C(F)(F)F)c2)CC1)N1CCC(c2c[nH]c3ccccc23)CC1` (stereo not drawn) [Cpd 232] is 1.9-fold higher in IC50: 2100 nM for the first, 4000 nM for the second. The first is the more potent here.

Compared with `CC(=O)OCC(C1CCN(C(=O)OC(C)(C)C)CC1)N1CCC(c2c[nH]c3ccccc23)CC1` (stereo not drawn) [Cpd 234, 4-{2-acetoxy-1-[4-(1H-indol-3-yl)-piperidin-1-yl]-ethyl}-piperidine-1-carboxylic acid tert-butyl ester], `COC(=O)NCC(C1CCN(C(=O)/C=C/c2cc(F)cc(F)c2)CC1)N1CCC(c2c[nH]c3ccccc23)CC1` (stereo not drawn) [Cpd 239] is 3.7-fold lower in IC50: 11200 nM for the first, 3000 nM for the second.

Going from `O=C(/C=C/c1cc(F)c(F)c(F)c1)N1CCC(C(CO)N2CCC(c3coc4ncccc34)CC2)CC1` (stereo not drawn) [Cpd 248, (2E)-1-{4-[1-(4-furo[2,3-b]pyridin-3-yl-piperidin-1-yl)-2-hydroxy-ethyl]-piperidin-1-yl}-3-(3,4,5-trifluoro-phenyl)-propenone] to `CN(C)CC(=O)NCC(C1CCN(C(=O)/C=C/c2cc(F)cc(F)c2)CC1)N1CCC(c2c[nH]c3ccccc23)CC1` (stereo not drawn) [Cpd 252], the IC50 rises from 1900 nM to 5800 nM (3.1-fold). The first is the more potent here.

same assay, conditions: read-out: Inhibition of MCP-1 Binding IC50; 125I labeled MCP-1 binding to CCR2, THP-1 cells

`COc1ccc(C2CCN(C(CO)C3CCN(C(=O)/C=C/c4cc(F)c(F)cc4F)CC3)CC2)cc1` (stereo not drawn) [Cpd 140, (2E)-1-(4-{2-hydroxy-1-[4-(4-methoxy-phenyl)-piperidin-1-yl]-ethyl}-piperidin-1-yl)-3-(2,4,5-trifluoro-phenyl)-propenone] showed an IC50 of 1600 nM.

same assay, conditions: read-out: Inhibition of MCP-1 Binding, percent inhibition

Going from `CS(=O)(=O)Nc1ccc(C2CCN(C(CO)C3CCN(C(=O)/C=C/c4cc(F)c(F)c(F)c4)CC3)CC2)cc1` (stereo not drawn) [Cpd 209, N-{4-[1-(2-hydroxy-1-{1-[(2E)-3-(3,4,5-trifluoro-phenyl)-acryloyl]-piperidin-4-yl}-ethyl)-piperidin-4-yl]-phenyl}-methanesulfonamide] to `O=C(/C=C/c1ccc(C(F)(F)F)cc1)N1CCC(C(CCl)N2CCC(c3ccc(Cl)cc3)CC2)CC1` (stereo not drawn) [Cpd 247, (2E)-1-(4-{2-chloro-1-[4-(4-chloro-phenyl)-piperidin-1-yl]-ethyl}-piperidin-1-yl)-3-(4-trifluoromethyl-phenyl)-propenone], the inhibition at 25 µM rises from 52% to 53%.

`O=C(C1CC1c1ccc(Cl)c(Cl)c1)N1CCC(C(CO)N2CCC(c3c[nH]c4ccccc34)CC2)CC1` (stereo not drawn) [Cpd 212, [2-(3,4-dichloro-phenyl)-cyclopropyl]-(4-{2-hydroxy-1-[4-(1H-indol-3-yl)-piperidin-1-yl]-ethyl}-piperidin-1-yl)-methanone] and `COC(=O)NCC(C1CCN(C(=O)/C=C/c2cccc(C)c2)CC1)N1CCC(c2c[nH]c3ccccc23)CC1` (stereo not drawn) [Cpd 241] are the same in inhibition at 25 µM: 58% for the first, 58% for the second.

`O=CNCC(C1CCN(C(=O)/C=C/c2cccc(C(F)(F)F)c2)CC1)N1CCC(c2c[nH]c3ccccc23)CC1` (stereo not drawn) [Cpd 224] was tested, and the inhibition at 25 µM was 54%.
